Key:
[1] = Compound cytotoxicity, XTT-based colorimetric assay; assay type: cell-based; conditions: human; uninfected MT2 cells, day 4, XTT
Method in brief: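 Run under the antiviral-assay protocol but without virus. Viability was read on day 4 and CC50 values were derived from the readout.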

[2] = tested on: recombinant NL4-3 virus (Renilla luciferase) in MT-2 cells; test: HIV cell culture assay (antiviral activity, luciferase readout); assay type: cell-based; conditions: Renilla, NL43
Method in brief: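 MT-2 cells were infected with recombinant NL4-3 virus carrying Renilla luciferase in place of part of nef. Cells were cultured 4–5 days with serially diluted compound, and luciferase was measured with a live-cell substrate. EC50 was calculated from the median effect equation.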

| SMILES | CC50 at 4 days [1] | EC50 [2] |
| --- | --- | --- |
| CCc1cc(C)nc(-c2ccc3c(=O)n(-c4ccc(Cl)c5c(NS(C)(=O)=O)nn(CC(F)F)c45)c([C@H](Cc4cc(F)cc(F)c4)NC(=O)Cn4nc(C(F)F)c5c4C(F)(F)[C@@H]4C[C@H]54)nc3c2)n1 (atropisomer, axis not shown) [Example 126, N-[(1S)-1-{3-[4-chloro-1-(2,2-difluoroethyl)-3-methanesulfonamido-1H-indazol-7-yl]-7-(4-ethy1-6-methylpyrimidin-2-y1)-4-oxo-3,4-dihydroquinazolin-2-yl}-2-(3,5-difluorophenyl)ethyl]-2-[(2S,4R)-9-(difluoromethyl)-5,5-difluoro-7,8-diazatricyclo[4.3.0.0^2,^4]nona-1(6),8-dien-7-yl]acetamide] | > 500 nM | 0.12 nM |
| Cc1cc(C)c(C(F)(F)F)c(-c2ccc3c(=O)n(-c4ccc(Cl)c5c(NS(C)(=O)=O)nn(C)c45)c([C@H](Cc4cc(F)cc(F)c4)NC(=O)Cn4nc(C(F)F)c5c4C(F)(F)[C@@H]4C[C@H]54)nc3c2)n1 (atropisomer, axis not shown; (P)) [Example 52, N—((S)-1-((3P)-3-(4-chloro-1-methyl-3-(methylsulfonamido)-1H-indazol-7-yl)-7-(4,6-dimethyl-3-(trifluoromethyl)pyridin-2-yl)-4-oxo-3,4-dihydroquinazolin-2-yl)-2-(3,5-difluorophenyl)ethyl)-2-((3bS,4aR)-3-(difluoromethyl)-5,5-difluoro-3b,4,4a,5-tetrahydro-1H-cyclopropa[3,4]cyclopenta[1,2-c]pyrazol-1-yl)acetamide] | > 500 nM | 0.48 nM |
| COc1cnc(-c2ccc3c(=O)n(-c4ccc(Cl)c5c(NS(C)(=O)=O)nn(CC(F)(F)F)c45)c([C@H](Cc4cc(F)cc(F)c4)NC(=O)Cn4nc(C(F)F)c5c4C(F)(F)[C@@H]4C[C@H]54)nc3c2)nc1 (atropisomer, axis not shown) [Example 115, N-[(1S)-1-{3-[4-chloro-3-methanesulfonamido-1-(2,2,2-trifluoroethyl)-1H-indazol-7-yl]-7-(5-methoxypyrimidin-2-yl)-4-oxo-3,4-dihydroquinazolin-2-yl}-2-(3,5-difluorophenyl)ethyl]-2-[(2S,4R)-9-(difluoromethyl)-5,5-difluoro-7,8-diazatricyclo[4.3.0.0^2,^4]nona-1(6),8-dien-7-yl]acetamide] | > 500 nM | 0.098 nM |
| Cn1nc(NS(C)(=O)=O)c2c(Cl)ccc(-n3c([C@H](Cc4cc(F)cc(F)c4)NC(=O)Cn4nc(C(F)F)c5c4C(F)(F)[C@@H]4C[C@H]54)nc4cc(-c5ccccc5S(=O)(=O)C(C)(C)C)ccc4c3=O)c21 [Example 32, N—((S)-1-(7-(2-(tert-butylsulfonyl)phenyl)-(3P)-3-(4-chloro-1-methyl-3-(methylsulfonamido)-1H-indazol-7-yl)-4-oxo-3,4-dihydroquinazolin-2-yl)-2-(3,5-difluorophenyl)ethyl)-2-((3bS,4aR)-3-(difluoromethyl)-5,5-difluoro-3b,4,4a,5-tetrahydro-1H-cyclopropa[3,4]cyclopenta[1,2-c]pyrazol-1-yl)acetamide] | > 500 nM | 0.11 nM |
| Cc1cc(C)nc(-c2ccc3c(=O)n(-c4ccc(Cl)c5c(NS(C)(=O)=O)nn(CC(F)(F)F)c45)c([C@H](Cc4cc(F)cc(F)c4)NC(=O)Cn4nc(C(F)F)c5c4C(F)(F)[C@@H]4C[C@H]54)nc3c2)c1 (atropisomer, axis not shown) [Example 101, N-[(1S)-1-{3-[4-chloro-3-methanesulfonamido-1-(2,2,2-trifluoroethyl)-1H-indazol-7-yl]-7-(4,6-dimethylpyridin-2-yl)-4-oxo-3,4-dihydroquinazolin-2-yl}-2-(3,5-difluorophenyl)ethyl]-2-[(2S,4R)-9-(difluoromethyl)-5,5-difluoro-7,8-diazatricyclo[4.3.0.0^2,^4]nona-1(6),8-dien-7-yl]acetamide] | > 500 nM | 0.21 nM |
| Cn1nc(NS(C)(=O)=O)c2c(Cl)ccc(-n3c([C@H](Cc4cc(F)cc(F)c4)NC(=O)Cn4nc(C(F)F)c5c4C(F)(F)[C@@H]4C[C@H]54)nc4cc(-c5cc(S(C)(=O)=O)ccn5)ccc4c3=O)c21 (atropisomer, axis not shown; (P)) [Example 4, N—((S)-1-((3P)-3-(4-chloro-1-methyl-3-(methylsulfonamido)-1H-indazol-7-yl)-7-(4-(methylsulfonyl)pyridin-2-yl)-4-oxo-3,4-dihydroquinazolin-2-yl)-2-(3,5-difluorophenyl)ethyl)-2-((3bS,4aR)-3-(difluoromethyl)-5,5-difluoro-3b,4,4a,5-tetrahydro-1H-cyclopropa[3,4]cyclopenta[1,2-c]pyrazol-1-yl)acetamide] | > 500 nM | 0.053 nM |
| Cn1nc(NS(C)(=O)=O)c2c(Cl)ccc(-n3c([C@H](Cc4cc(F)cc(F)c4)NC(=O)Cn4nc(C(F)F)c5c4C(F)(F)[C@@H]4C[C@H]54)nc4cc(-c5nccc(C(C)(C)C)n5)ccc4c3=O)c21 (atropisomer, axis not shown; (P)) [Example 47, N—((S)-1-(7-(4-(tert-butyl)pyrimidin-2-yl)-(3P)-3-(4-chloro-1-methyl-3-(methylsulfonamido)-1H-indazol-7-yl)-4-oxo-3,4-dihydroquinazolin-2-yl)-2-(3,5-difluorophenyl)ethyl)-2-((3bS,4aR)-3-(difluoromethyl)-5,5-difluoro-3b,4,4a,5-tetrahydro-1H-cyclopropa[3,4]cyclopenta[1,2-c]pyrazol-1-yl)acetamide] | > 500 nM | 0.19 nM |
| CC(C)c1nccnc1-c1ccc2c(=O)n(-c3ccc(Cl)c4c(NS(C)(=O)=O)nn(C)c34)c([C@H](Cc3cc(F)cc(F)c3)NC(=O)Cn3nc(C(F)F)c4c3C(F)(F)[C@@H]3C[C@H]43)nc2c1 (atropisomer, axis not shown; (P)) [Example 16, N—((S)-1-((3P)-3-(4-chloro-1-methyl-3-(methylsulfonamido)-1H-indazol-7-yl)-7-(3-isopropylpyrazin-2-yl)-4-oxo-3,4-dihydroquinazolin-2-yl)-2-(3,5-difluorophenyl)ethyl)-2-((3bS,4aR)-3-(difluoromethyl)-5,5-difluoro-3b,4,4a,5-tetrahydro-1H-cyclopropa[3,4]cyclopenta[1,2-c]pyrazol-1-yl)acetamide] | > 500 nM | 0.12 nM |
| Cn1nc(NS(C)(=O)=O)c2c(Cl)ccc(-n3c([C@H](Cc4cc(F)cc(F)c4)NC(=O)Cn4nc(C(F)F)c5c4C(F)(F)[C@@H]4C[C@H]54)nc4cc(-c5ccccc5OC(F)F)ccc4c3=O)c21 (atropisomer, axis not shown; (P)) [Example 25, N—((S)-1-((3P)-3-(4-chloro-1-methyl-3-(methylsulfonamido)-1H-indazol-7-yl)-7-(2-(difluoromethoxy)phenyl)-4-oxo-3,4-dihydroquinazolin-2-yl)-2-(3,5-difluorophenyl)ethyl)-2-((3bS,4aR)-3-(difluoromethyl)-5,5-difluoro-3b,4,4a,5-tetrahydro-1H-cyclopropa[3,4]cyclopenta[1,2-c]pyrazol-1-yl)acetamide] | > 500 nM | 0.85 nM |
| COCc1nc(C)cc(-c2ccc3c(=O)n(-c4ccc(Cl)c5c(NS(C)(=O)=O)nn(C)c45)c([C@H](Cc4cc(F)cc(F)c4)NC(=O)Cn4nc(C(F)F)c5c4C(F)(F)[C@@H]4C[C@H]54)nc3c2)n1 (atropisomer, axis not shown; (P)) [Example 75, N—((S)-1-((3P)-3-(4-chloro-1-methyl-3-(methylsulfonamido)-1H-indazol-7-yl)-7-(2-(methoxymethyl)-6-methylpyrimidin-4-yl)-4-oxo-3,4-dihydroquinazolin-2-yl)-2-(3,5-difluorophenyl)ethyl)-2-((3bS,4aR)-3-(difluoromethyl)-5,5-difluoro-3b,4,4a,5-tetrahydro-1H-cyclopropa[3,4]cyclopenta[1,2-c]pyrazol-1-yl)acetamide] | > 500 nM | 0.077 nM |
| CCc1cc(-c2ccc3c(=O)n(-c4ccc(Cl)c5c(NS(C)(=O)=O)nn(C)c45)c([C@H](Cc4cc(F)cc(F)c4)NC(=O)Cn4nc(C(F)F)c5c4C(F)(F)[C@@H]4C[C@H]54)nc3c2)nc(C)n1 (atropisomer, axis not shown; (P)) [Example 62, N—((S)-1-((3P)-3-(4-chloro-1-methyl-3-(methylsulfonamido)-1H-indazol-7-yl)-7-(6-ethyl-2-methylpyrimidin-4-yl)-4-oxo-3,4-dihydroquinazolin-2-yl)-2-(3,5-difluorophenyl)ethyl)-2-((3bS,4aR)-3-(difluoromethyl)-5,5-difluoro-3b,4,4a,5-tetrahydro-1H-cyclopropa[3,4]cyclopenta[1,2-c]pyrazol-1-yl)acetamide] | > 500 nM | 0.11 nM |
| Cn1nc(NS(C)(=O)=O)c2c(Cl)ccc(-n3c([C@H](Cc4cc(F)cc(F)c4)NC(=O)Cn4nc(C(F)F)c5c4C(F)(F)[C@@H]4C[C@H]54)nc4cc(-c5ccnc(C6CCC6)n5)ccc4c3=O)c21 (atropisomer, axis not shown; (P)) [Example 76, N—((S)-1-((3P)-3-(4-chloro-1-methyl-3-(methylsulfonamido)-1H-indazol-7-yl)-7-(2-cyclobutylpyrimidin-4-yl)-4-oxo-3,4-dihydroquinazolin-2-yl)-2-(3,5-difluorophenyl)ethyl)-2-((3bS,4aR)-3-(difluoromethyl)-5,5-difluoro-3b,4,4a,5-tetrahydro-1H-cyclopropa[3,4]cyclopenta[1,2-c]pyrazol-1-yl)acetamide] | > 500 nM | 0.18 nM |
| Cc1ncc(-c2ccc3c(=O)n(-c4ccc(Cl)c5c(NS(C)(=O)=O)nn(CC(F)(F)F)c45)c([C@H](Cc4cc(F)cc(F)c4)NC(=O)Cn4nc(C(F)F)c5c4C(F)(F)[C@@H]4C[C@H]54)nc3c2)s1 (atropisomer, axis not shown) [Example 114] | > 500 nM | 0.15 nM |

Source: patent US11541055B2, “Inhibitors of human immunodeficiency virus replication” (ViiV Healthcare UK (No. 5) LIMITED, priority 2018, dated 2023)
